The source of these data is patent US4736057A, “Cyclohexane derivatives” (Imperial Chemical Industries PLC, priority 1983, dated 1988).

For one assay, the system named is thromboxane A2 (TXA2). Nature of the assay: rabbit aortal strip model, test (a), using the TXA2 mimetic U46619 as agonist. It is filed as cell-based. The source says: (a) The rabbit aortal strip model devised by Piper and Vane (Nature. […]. 223, 29-35) using as agonist the TXA2 mimetic agent known as U46619 (R. L. Jones et alia in "Chemistry, Biochemistry and Pharmacological Activity of Prostanoids", eds. S. M. Roberts and F. Scheinman, at p.211, Pergamon Press, 1979);

Assay [1] relates to hypertensive effect of TXA2 mimetic agent U46619. Nature of the assay: hypertensive effect of U46619 in anaesthetised rats, test (d). It counts as in vivo, rats (Alderley Park strain). To be noted: Rattus norvegicus, iv; intravenously via the jugular vein, anaesthetised male rats, blood pressure at carotid artery, n=3; read-out: ED50 (dose necessary to produce 50% of the maximum hypertensive effect). On the procedure: (d) Male rats (Alderley Park strain) are anaesthetised with sodium pentobarbital and blood pressure is monitored at the carotid artery. The TXA2 mimetic agent known as U46619 is administered intravenously via the jugular vein and an ED50 (dose necessary to produce 50% of the maximum hypertensive effect) is established (n=3). The ED50 for U46619 is approximately 5 μg/kg. A test compound is then administered either intravenously via the jugular vein or orally via a cannula directly into the stomach and the animal challenged with an ED50 dose of U46619, five minutes after dosing with test compound and then successively every ten minutes until the hypertensive effect of U46619 is no longer blocked.

For `O=C(O)CCC/C=C\C[C@@H]1CC[C@H](OCc2ccccc2)C[C@@H]1c1ccccc1` (relative stereo) [Example 16, 5(Z)-7-([1,2,4-cis]-4-benzyloxy-2-phenylcyclohexyl)heptenoic acid], the pA2 in the assay with thromboxane A2 (TXA2) is listed as 5.9.

Regarding `CCCCC[C@H](O)/C=C/[C@@H]1[C@@H](C/C=C\CCCC(=O)O)[C@H]2CO[C@@H]1C2` [Example U46619], in assay [1], the ED50 was around 5 µg/kg.
